In one series the test system is HCV. Put plainly: activity of Example 26 (test not stated; patent concerns anti-hepatitis C activity). The conditions noted are these: test not specified.
For series [1] the following is noted: patients treated at currently recommended doses; cited from earlier work.

`O=P(O)(O)OP(=O)(O)OP(=O)(O)OC[C@H]1O[C@@H](n2cnc3c(NO)ncnc32)[C@H](O)[C@@H]1O` [Example 26, 6-Hydroxylamino-9-β-D-ribofuranosylpurine 5′-Triphosphate]: the “activity (stated in words)” value in the series with HCV was “inactive”.

`NC(=O)c1ncn([C@@H]2O[C@H](CO)[C@@H](O)[C@H]2O)n1` [Ribavirin, 1-β-D-ribofuranosyl-1H-1,2,-4-triazole-3-carboxamide]: in series [1], the “patients with significant hemolysis” value is 10-20%.
